Test [1] concerns RAW 264.7 macrophage cells. As to the kind of experiment: Griess assay, LPS-induced NO production. The conditions noted are these: LPS (1 µg/mL), 24 h. In kind it is cell-based. Here is the method:
Griess assay (Promega) was performed under manufacturer’s instruction to measure the concentration of nitrite after inducing the inflammatory response in RAW 264.7 macrophage cells by LPS treatment. The well-known PPAR selective agonists, such as WY14643 (PPARα), GW501516 (PPAR-β/δ), and rosiglitazone (PPARγ), were used as positive controls.
(Nitrite, measured by Griess reagent, commonly stands in for NO production.)

For a further test, the system named is PPAR-β/δ. Also noted: method as in PMID 27802237. As to conditions: dual agonist of PPAR-β/δ and PPARγ; cited from earlier work.

On to `Cc1cc(SCc2sc(-c3ccc(C(F)(F)F)cc3)nc2C)ccc1OCC(=O)O` [GW501516, reference compound], for which the “inhibition of NO production compared between DTMB and known PPAR agonists” value in test [1] is “better inhibitor than DTMB”.
Consider `CCc1oc(-c2ccc(OC)cc2)nc1CCOc1ccc2c(c1)CC[C@H]2CC(=O)[O-].[Na+]` [T3D-959], for which the “selectivity to PPAR-β/δ” value with PPAR-β/δ is listed as 15 fold.
